# Source: patent publication US7351737B2, “4-[(8-substituted)-6-chromanoyl]-and 4-[8-substituted)-chroman-6-YL-ethynyl]-benzoic and phenylacetic acids, their esters and salts having cytochrome P450RAI inhibitory activity” (Allergan, Inc., priority 2002, dated 2008)
# How the values were obtained:
# P450RAI-2 = target: T1, P450RAI-2 (Homo sapiens, UniProt Q9NR63); test: P450RAI-2 cell-based inhibitor assay ([3H]-RA metabolism, intact cells); settings: P450RAI-2 stably transfected HeLa cells, 3 hours at 37° C., all-trans-RA metabolism; read-out: P450RAI INHIBITION DATA RAI-2 Intact Cells IC50
# T1 construct: expressed in transfected cells; host or cells: HeLa
# T1 sequence (Q9NR63 1-512): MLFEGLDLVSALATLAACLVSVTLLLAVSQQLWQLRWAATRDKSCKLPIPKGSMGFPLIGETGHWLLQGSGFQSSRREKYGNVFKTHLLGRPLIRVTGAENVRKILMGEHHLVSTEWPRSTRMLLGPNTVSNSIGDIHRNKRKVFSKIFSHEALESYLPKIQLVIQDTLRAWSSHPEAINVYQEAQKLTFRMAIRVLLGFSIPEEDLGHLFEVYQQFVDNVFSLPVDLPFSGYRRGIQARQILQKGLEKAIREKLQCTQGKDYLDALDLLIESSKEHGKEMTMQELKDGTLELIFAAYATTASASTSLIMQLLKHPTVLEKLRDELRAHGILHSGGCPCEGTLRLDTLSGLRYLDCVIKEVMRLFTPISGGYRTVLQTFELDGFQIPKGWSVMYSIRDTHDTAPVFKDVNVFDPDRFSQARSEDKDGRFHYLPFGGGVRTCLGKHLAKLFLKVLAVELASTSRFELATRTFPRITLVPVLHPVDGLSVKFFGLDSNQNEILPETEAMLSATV
# Method: FIG. 1 is a schematic representation of the P450RAI cell based assay utilized to evaluate the ability of the compounds of the invention to inhibit the Cytochrome P450RAI enzyme.
# P450RAI-1 and P450RAI-2 Cell-Based Inhibitor Assay:
# P450RAI-1 stably transfected HeLa cells, or P450RAI-2 stably transfected HeLa cells, as applicable, are maintained in […] tissue culture dishes in Modified Eagle's Medium (MEM) containing 10% Fetal Bovine Serum (FBS) and 100 μg/ml hygromycin. Exponentially growing cells are harvested by incubating in trypsin. Cells are then washed with 1X Phosphate Buffered Saline (PBS) and plated in a 48-well plate at 5×10^5 cells in 0.2 ml MEM medium containing 10% FBS and 0.05 μCi [^3H]-RA in the presence or absence of increasing concentrations of the test compounds. The compounds are diluted in 100% DMSO and then added in triplicate wells at either 10, 1 or 0.1 μM final concentration. As a positive control for RA metabolism inhibition, cells are also incubated with ketoconazole at 100, 10 and 1 μM. Cells are incubated for 3 hours at 37° C. The retinoids are then extracted using the procedure of Bligh et al. (1959) Canadian Journal of Biochemistry 37, 911-917, modified by using methylenechloride instead of chloroform. The publication Bligh et al. (1959) Canadian Journal of Biochemistry 37, 911-917 is specifically incorporated herein by reference. The water soluble radioactivity is quantified using a β-scintillation counter. IC50 values represent the concentration of inhibitor required to inhibit all-trans-RA metabolism by 50 percent and are derived manually from log-transformed data.
# RARβ = target: T2, RARβ (Homo sapiens, UniProt P10826); test: ligand binding assay, RARβ; settings: last item of cell, read-out: RAR β Kd
# T2 sequence (P10826 1-455): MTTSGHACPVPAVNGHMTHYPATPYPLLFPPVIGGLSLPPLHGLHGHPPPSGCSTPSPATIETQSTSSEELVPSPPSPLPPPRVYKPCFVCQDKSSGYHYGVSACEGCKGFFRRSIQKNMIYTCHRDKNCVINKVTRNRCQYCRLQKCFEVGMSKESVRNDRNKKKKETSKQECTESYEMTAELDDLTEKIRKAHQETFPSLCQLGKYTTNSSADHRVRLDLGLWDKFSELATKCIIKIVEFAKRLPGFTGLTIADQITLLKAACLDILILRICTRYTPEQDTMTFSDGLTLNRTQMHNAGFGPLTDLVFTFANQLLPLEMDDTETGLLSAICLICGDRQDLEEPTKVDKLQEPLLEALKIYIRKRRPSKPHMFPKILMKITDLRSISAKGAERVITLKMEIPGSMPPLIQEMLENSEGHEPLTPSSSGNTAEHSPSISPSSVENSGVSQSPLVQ
# From the text: Assays described below measure the ability of a compound to bind to, and/or activate various retinoid receptor subtypes. When in these assays a compound binds to a given receptor subtype and activates the transcription of a reporter gene through that subtype, then the compound is considered an agonist of that receptor subtype. […] In the below described assays the ability of the compounds to bind to RARα, RARβ, RARγ, RXRα, RXRβ and RXRγ receptors, and the ability or inability of the compounds to activate transcription of a reporter gene through these receptor subtypes can be tested.
# A holoreceptor transactivation assay and a ligand binding assay which measure the antagonist/agonist like activity of the compounds of the invention, or their ability to bind to the several retinoid receptor subtypes, respectively, are described in published PCT Application No. WO WO93/11755 (particularly on pages 30-33 and 37-41) published on Jun. 24, 1993, the specification of which is also incorporated herein by reference. A detailed experimental procedure for holoreceptor transactivations has been described by Heyman et al. Cell 68, 397-406, (1992); Allegretto et al. J. Biol. Chem. 268, 26625-26633, and Mangelsdorf et al. The Retinoids: Biology, Chemistry and Medicine, pp 319-349, Raven Press Ltd., New York, which are expressly incorporated herein by reference. The results obtained in this assay are expressed in EC50 numbers, as they are also in the chimeric receptor transactivation assay. The results of ligand binding assay are expressed in Kd numbers. (See Cheng et al. Biochemical Pharmacology Vol. 22 pp 3099-3108, expressly incorporated herein by reference.)
# The results of the ligand binding assay for several preferred compounds of the invention are included in Table 1.
Compound,IC50 (P450RAI-2) [nM],Kd (RARβ) [µM]
"C#Cc1cc(C(=O)Oc2ccc(CC(=O)OCOC(C)=O)c(F)c2)cc2c1OC(C)(C)CC2(C)C [Compound 5, 8-Ethynyl-2,2,4,4-tetramethyl-chroman-6-carboxylic acid 4-acetoxymethoxycarbonylmethyl-3-fluoro-phenyl ester]",30,5.55
"C#Cc1cc(C(=O)Oc2ccc(CC(=O)OCOC(C)=O)cc2)cc2c1OC(C)(C)CC2(C)C [Compound 3, 8-Ethynyl-2,2,4,4-tetramethyl-chroman-6-carboxylic acid 4-acetoxymethoxycarbonylmethyl-phenyl ester]",80,> 10
"C#Cc1cc(C(=O)Oc2ccc(CC(=O)O)c(F)c2)cc2c1OC(C)(C)CC2(C)C [Compound 4, 8-Ethynyl-2,2,4,4-tetramethyl-chroman-6-carboxylic acid-4-carboxymethyl-3-fluoro-phenyl ester]",60,6.56
"C#Cc1cc(C(=O)Oc2ccc(CC(=O)OCC)cc2)cc2c1OC(C)(C)CC2(C)C [Compound 2, 8-Ethynyl-2,2,4,4-tetramethyl-chroman-6-carboxylic acid 4-ethoxycarbonylmethyl-phenyl ester]",6000,> 10
C#CCc1cc(C#Cc2ccc(CC(=O)O)cc2)cc2c1OC(C)(C)CC2(C)C [Compound 49],120,> 10
"CC1(C)CC(C)(C)c2cc(C(=O)Oc3ccc(CC(=O)O)c(F)c3)cc(C#N)c2O1 [Compound 32, 8-Cyano-2,2,4,4-tetramethyl-chroman-6-carboxylic acid-4-carboxymethyl-3-fluoro-phenyl ester]",900,> 10
"CC(=O)OCOC(=O)Cc1ccc(OC(=O)c2cc(C#N)c3c(c2)C(C)(C)CC(C)(C)O3)cc1F [Compound 33, 8-Cyano-2,2,4,4-tetramethyl-chroman-6-carboxylic acid 4-acetoxymethoxycarbonylmethyl-3-fluoro-phenyl ester]",700,> 10

# The next compounds have a lower IC50 (P450RAI-2) than those just listed; values first:
IC50 (P450RAI-2) [nM],Kd (RARβ) [µM],Compound
7,7.62,"C#Cc1cc(C#Cc2ccc(CC(=O)O)cc2)cc2c1OC(C)(C)CC2(C)C [Compound 40, [4-(8-Ethynyl-2,2,4,4-tetramethyl-chroman-6-ylethynyl)-phenyl]-acetic acid]"
14,> 10,"C#Cc1cc(C(=O)Oc2ccc(CC(=O)O)cc2)cc2c1OC(C)(C)CC2(C)C [Compound 1, 8-Ethynyl-2,2,4,4-tetramethyl-chroman-6-carboxylic acid 4-carboxymethyl-phenyl ester]"
4,4.95,"C#Cc1cc(C#Cc2ccc(CC(=O)O)c(F)c2)cc2c1OC(C)(C)CC2(C)C [Compound 41, [4-(8-Ethynyl-2,2,4,4-tetramethyl-chroman-6-ylethynyl)-2-fluoro-phenyl]-acetic acid]"
